Results reported in ChEMBL document CHEMBL4651402, “Screening of ~5500 FDA-approved drugs and clinical candidates for anti-SARS-CoV-2 activity” (2021).
Where a name gives a salt, the structure may show the parent alone.

Tested on: SARS-CoV-2
Assay: microbe, parasite or virus in culture
Conditions: Severe acute respiratory syndrome coronavirus 2, Vero C1008, 48 h

Structure (SMILES)	IC50	IC50 (read-out: pIC50 (converted))
Cc1ccc(-c2nc3ccc(C)cn3c2CC(=O)N(C)C)cc1 [ZOLPIDEM]	> 20 µM	> 20 µM
O=C(O)CCC(=O)O [SUCCINIC ACID]	> 20 µM	> 20 µM
CCOC(=O)Cc1ccc(-c2ccccc2)cc1	> 20 µM	> 20 µM
CCOC(=O)C(CCc1ccccc1)NC(C)C(=O)N1CC2(CC1C(=O)O)SCCS2 (stereo not given)	> 20 µM	> 20 µM
CCN(CC)CC#CCOC(=O)[C@](O)(c1ccccc1)C1CCCCC1 [AROXYBUTYNIN]	> 20 µM	> 20 µM
Nc1nc(OCc2cc(Br)cs2)c2[nH]cnc2n1 [LOMEGUATRIB]	> 20 µM	> 20 µM
COc1cccc2cc(-c3nc([C@H]4CC[C@H](C(=O)O)CC4)n4ncnc(N)c34)[nH]c12 [OSI-027]	> 20 µM	> 20 µM
C[C@@]12C(=O)OC(=O)[C@]1(C)[C@H]1CC[C@@H]2O1 [CANTHARIDIN]	> 20 µM	> 20 µM
CN(C)CCCSC(=N)N	> 20 µM	> 20 µM
COc1cc(N)c(Cl)cc1C(=O)N[C@@H]1CCNC[C@@H]1OC [TICALOPRIDE]	> 20 µM	> 20 µM
CN(C)CCC=C1c2ccccc2CCc2ccccc21 [AMITRIPTYLINE]	> 20 µM	> 20 µM
CC1=C(CC(=O)O)c2cc(F)ccc2/C1=C\c1ccc(S(C)(=O)=O)cc1 [EXISULIND]	> 20 µM	> 20 µM
CNCc1ccc(-c2[nH]c3cc(F)cc4c3c2CCNC4=O)cc1 [RUCAPARIB]	> 20 µM	> 20 µM
CCCCCOC(=O)Nc1nc(=O)n([C@@H]2O[C@H](C)[C@@H](O)[C@H]2O)cc1F [CAPECITABINE]	> 20 µM	> 20 µM
CCO[C@@H](Cc1ccc(OCCc2ccc(OS(C)(=O)=O)cc2)cc1)C(=O)O [TESAGLITAZAR]	> 20 µM	> 20 µM
NC(Cc1c[nH]c2ccc(O)cc12)C(=O)O (stereo not given)	> 20 µM	> 20 µM
OCCN(CCO)c1nc(-c2ccccc2)c(-c2ccccc2)o1 [DITAZOLE]	> 20 µM	> 20 µM
COc1ccccc1Oc1c(NS(=O)(=O)c2ccc(C)cn2)nc(-c2ccncc2)nc1OC [AVOSENTAN]	> 20 µM	> 20 µM
CNCC(O)c1cccc(O)c1 (stereo not given)	> 20 µM	> 20 µM
O=C(O)CCC(=O)C(=O)O [ALPHA-KETOGLUTARIC ACID]	> 20 µM	> 20 µM
N#CCCCSC(=N)N [4-ISOTHIOUREIDOBUTYRONITRILE]	> 20 µM	> 20 µM
COc1ccccc1OCC(O)CO (stereo not given) [GUAIFENESIN]	> 20 µM	> 20 µM
NC(=O)c1ccc(N)nc1 [6-AMINONICOTINAMIDE]	> 20 µM	> 20 µM
c1ccc2c(c1)Sc1ccccc1N2CCN1CCCC1 [PYRATHIAZINE]	> 20 µM	> 20 µM
CCN(CC)CCOC(=O)C(c1ccccc1)N1CCCCC1 (stereo not given) [BIETAMIVERINE]	> 20 µM	> 20 µM
CNC(=N)NCCC[C@H](N)C(=O)O [TILARGININE]	> 20 µM	> 20 µM
Cc1cc(CCCCCOc2c(Cl)cc(C3=NCCO3)cc2Cl)on1 [WIN-54954]	> 20 µM	> 20 µM

Structure (SMILES)	IC50	IC50 (read-out: pIC50 (converted))
C=CC(C)NC(=S)NNC(=S)NC (stereo not given) [METHALLIBURE]	> 20 µM	> 20 µM
CC(=O)N[C@H]1[C@H]([C@H](O)[C@H](O)CO)O[C@](O)(C(=O)O)C[C@@H]1O	> 50.1 µM	> 50.1 µM
CC(=O)Nc1ccc(OC(C)(C)C)cc1 [BUTACETIN]	> 20 µM	> 20 µM
CC1OC(n2cc(F)c(=O)[nH]c2=O)C(O)C1O (stereo not given)	> 20 µM	> 20 µM
O=C(O)C1CCc2cc(C3CCCCC3)c(Cl)cc21 (stereo not given)	> 20 µM	> 20 µM
CN1C(=O)COc2c(C(=O)NC3CN4CCC3CC4)cc(Cl)cc21 (stereo not given) [AZASETRON]	> 20 µM	> 20 µM
CC[C@H](NC(=O)c1c(O)c(-c2ccccc2)nc2ccccc12)c1ccccc1 [TALNETANT]	> 20 µM	> 20 µM
CC(=O)NO [ACETOHYDROXAMIC ACID]	> 20 µM	> 20 µM
CCCOc1ccc2[nH]c(NC(=O)OC)nc2c1 [OXIBENDAZOLE]	> 20 µM	> 20 µM
CCOC(=O)C1(c2ccccc2)CCCN(C)CC1 (stereo not given) [ETHOHEPTAZINE]	> 20 µM	> 20 µM
O=C(N/N=C/c1ccccc1O)c1ccncc1 [SALINAZID]	> 20 µM	> 20 µM
CC[N+](CC)(CC(=O)Nc1c(C)cccc1C)Cc1ccccc1 [DENATONIUM]	> 20 µM	> 20 µM
CCN1/C(=C/C=C/C=C/c2sc3ccccc3[n+]2CC)Sc2ccccc21 [DITHIAZANINE IODIDE]	> 20 µM	> 20 µM
CN(C)C(=N)NC(=N)N [METFORMIN]	> 20 µM	> 20 µM
C1CCC(C(CC2CCCCN2)C2CCCCC2)CC1 (stereo not given) [PERHEXILINE MALEATE]	> 20 µM	> 20 µM
CC1=C(C)C(=O)C(CCCCC#CCCCC#CCO)=C(C)C1=O [DOCEBENONE]	> 20 µM	> 20 µM
CCN(CC)CCNC(=O)c1ccc(NC(C)=O)cc1 [ACECAINIDE]	> 20 µM	> 20 µM
CN1[C@@H]2CC[C@H]1C[C@@H](OC(=O)c1c[nH]c3ccccc13)C2 [TROPISETRON]	> 20 µM	> 20 µM
CCOC(=O)C1=C(C)NC(C)=C(C(=O)OCC)C1c1cccnc1SC [MESUDIPINE]	> 20 µM	> 20 µM
CC(C)(C)NC(=O)c1nn(-c2ccc(F)cc2F)c2c1C1CCC2C1 (stereo not given)	> 20 µM	> 20 µM
CC[C@@H]1C(=O)OC[C@@H]1Cc1cncn1C [PILOCARPINE]	> 20 µM	> 20 µM
C[C@]12C=CC(=O)C=C1CC[C@H]1[C@@H]3C[C@@H](O)[C@](O)(C(=O)CO)[C@@]3(C)C[C@H](O)[C@@]12F [TRIAMCINOLONE]	> 20 µM	> 20 µM
CCn1cc(C(=O)O)c(=O)c2cnc(N3CCNCC3)nc21 [PIPEMIDIC ACID]	> 20 µM	> 20 µM
C[C@@H]1C(=O)NC2=Nc3cccc(Cl)c3CN21 [QUAZINONE]	> 20 µM	> 20 µM
CC(C)(C)OC(=O)N1CCC[C@H]1CO	> 20 µM	> 20 µM
O=C(O)[C@@H]1CCCN1 [PROLINE]	> 20 µM	> 20 µM
NC(=O)c1[nH]cnc1O	> 20 µM	> 20 µM

Structure (SMILES)	IC50	IC50 (read-out: pIC50 (converted))
CNC(=O)[C@@H](NC(=O)[C@H](CC(C)C)[C@H](O)C(=O)NO)C(C)(C)C	> 20 µM	> 20 µM
Cc1ccc(Cn2c(NC3CCNCC3)nc3cccnc32)o1 [NOBERASTINE]	> 20 µM	> 20 µM
Cc1cccc(C)c1NC(=O)c1ccccc1C(=O)O [FTAXILIDE]	> 20 µM	> 20 µM
C/C=C(\C)C(=O)O[C@@H]1c2c(ccc3ccc(=O)oc23)OC(C)(C)[C@@H]1OC(C)=O [PTERYXIN]	> 20 µM	> 20 µM
COc1cc(C)[nH]c(=O)c1CNC(=O)c1c(C)n([C@H](C)C2CCN(CC(F)(F)F)CC2)c2ccccc12 [CPI-1205]	> 20 µM	> 20 µM
NCCCC(N)C(=O)O (stereo not given) [ORNITHINE aKETOGLUTARATE]	> 10 µM	> 10 µM
CN(C)CCN(Cc1cccs1)c1ccccn1	> 20 µM	> 20 µM
C[C@H](NC(=O)C(C)(C)Oc1ccc(C(F)(F)F)cn1)[C@@H](Cc1ccc(Cl)cc1)c1cccc(C#N)c1 [TARANABANT]	> 20 µM	> 20 µM
CCC12CCN(CC3(O)CC3)C(Cc3ccc(O)cc31)C2(C)C (stereo not given) [BREMAZOCINE]	> 20 µM	> 20 µM
Cc1ccnc2c1CCCC2C(N)=S (stereo not given) [ISOTIQUIMIDE]	> 20 µM	> 20 µM
CCCn1c(=O)c2[nH]cnc2n(-c2ccc(Cl)cc2)c1=O [AROFYLLINE]	> 20 µM	> 20 µM
CCC1C(=O)Nc2ccc(F)cc2N1C(=O)OC(C)C (stereo not given)	> 20 µM	> 20 µM
CC[C@H]1OC(=O)[C@H](C)[C@@H](O[C@H]2C[C@@](C)(OC)[C@@H](O)[C@H](C)O2)[C@H](C)[C@@H](O[C@@H]2O[C@H](C)C[C@H](N(C)C(C)C)[C@H]2O)[C@@]2(C)CC(C)=C(O2)[C@H](C)[C@@H](O)[C@]1(C)O [IDREMCINAL]	> 20 µM	> 20 µM
Cc1ccccc1N1C(=O)c2cc(S(N)(=O)=O)c(Cl)cc2NC1C (stereo not given) [METOLAZONE]	> 20 µM	> 20 µM
CN1C2CCC1CC(OC1c3ccccc3CCc3ccccc31)C2 (stereo not given)	> 20 µM	> 20 µM
Cc1oc(-c2ccccc2)nc1CCOc1ccc(CC2C(=O)NOC2=O)cc1 (stereo not given) [REGLITAZAR]	> 20 µM	> 20 µM
O=C(Nc1ccc(O)cc1)c1ccccc1O [OSALMID]	> 20 µM	> 20 µM
O=C(O)C[C@H](O)C[C@H](O)/C=C/c1c(C2CC2)nc2ccccc2c1-c1ccc(F)cc1 [PITAVASTATIN]	> 50.1 µM	> 50.1 µM
Nc1nc(O)c2ncn(CCC(CO)CO)c2n1 [PENCICLOVIR]	> 20 µM	> 20 µM
CC(=O)OCC(=O)[C@@]1(O)CC[C@H]2[C@@H]3CCC4=CC(=O)CC[C@]4(C)C3(F)[C@@H](O)C[C@@]21C (stereo not given in full)	> 20 µM	> 20 µM
CC[n+]1c(-c2ccccc2)c2cc(N)ccc2c2ccc(N)cc21 [HOMIDIUM]	> 20 µM	> 20 µM
O=C(/C=C/c1c(C(=O)O)[nH]c2cc(Cl)cc(Cl)c12)Nc1ccccc1	> 20 µM	> 20 µM
CC(=O)OCC(=O)C1(O)CCC2C3CCC4=CC(=O)C=CC4(C)C3C(O)CC21C (stereo not given)	> 20 µM	> 20 µM
CC(=O)C[C@@H](c1ccccc1)c1c(O)c2ccccc2oc1=O	> 20 µM	> 20 µM
CC/C(=C(\CC)c1ccc(OP(=O)(O)O)cc1)c1ccc(OP(=O)(O)O)cc1	> 20 µM	> 20 µM
Cn1c(Nc2ccc(C(F)(F)F)cc2)nc2cc(Oc3ccnc(-c4ncc(C(F)(F)F)[nH]4)c3)ccc21 [RAF-265]	> 20 µM	> 20 µM
